Source: ChEMBL document CHEMBL1681780, “A rational approach for the design and synthesis of 1-acetyl-3,5-diaryl-4,5-dihydro(1H)pyrazoles as a new class of potential non-purine xanthine oxidase inhibitors” (Bioorg Med Chem, 2011)

Target: Xanthine dehydrogenase/oxidase (Bos taurus, UniProt P80457)
Test: Inhibition of bovine Xanthine oxidase assessed as decrease in uric acid production preincubated […] for 5 mins by spectrophotometry

Chain of Xanthine dehydrogenase/oxidase (P80457 whole entry): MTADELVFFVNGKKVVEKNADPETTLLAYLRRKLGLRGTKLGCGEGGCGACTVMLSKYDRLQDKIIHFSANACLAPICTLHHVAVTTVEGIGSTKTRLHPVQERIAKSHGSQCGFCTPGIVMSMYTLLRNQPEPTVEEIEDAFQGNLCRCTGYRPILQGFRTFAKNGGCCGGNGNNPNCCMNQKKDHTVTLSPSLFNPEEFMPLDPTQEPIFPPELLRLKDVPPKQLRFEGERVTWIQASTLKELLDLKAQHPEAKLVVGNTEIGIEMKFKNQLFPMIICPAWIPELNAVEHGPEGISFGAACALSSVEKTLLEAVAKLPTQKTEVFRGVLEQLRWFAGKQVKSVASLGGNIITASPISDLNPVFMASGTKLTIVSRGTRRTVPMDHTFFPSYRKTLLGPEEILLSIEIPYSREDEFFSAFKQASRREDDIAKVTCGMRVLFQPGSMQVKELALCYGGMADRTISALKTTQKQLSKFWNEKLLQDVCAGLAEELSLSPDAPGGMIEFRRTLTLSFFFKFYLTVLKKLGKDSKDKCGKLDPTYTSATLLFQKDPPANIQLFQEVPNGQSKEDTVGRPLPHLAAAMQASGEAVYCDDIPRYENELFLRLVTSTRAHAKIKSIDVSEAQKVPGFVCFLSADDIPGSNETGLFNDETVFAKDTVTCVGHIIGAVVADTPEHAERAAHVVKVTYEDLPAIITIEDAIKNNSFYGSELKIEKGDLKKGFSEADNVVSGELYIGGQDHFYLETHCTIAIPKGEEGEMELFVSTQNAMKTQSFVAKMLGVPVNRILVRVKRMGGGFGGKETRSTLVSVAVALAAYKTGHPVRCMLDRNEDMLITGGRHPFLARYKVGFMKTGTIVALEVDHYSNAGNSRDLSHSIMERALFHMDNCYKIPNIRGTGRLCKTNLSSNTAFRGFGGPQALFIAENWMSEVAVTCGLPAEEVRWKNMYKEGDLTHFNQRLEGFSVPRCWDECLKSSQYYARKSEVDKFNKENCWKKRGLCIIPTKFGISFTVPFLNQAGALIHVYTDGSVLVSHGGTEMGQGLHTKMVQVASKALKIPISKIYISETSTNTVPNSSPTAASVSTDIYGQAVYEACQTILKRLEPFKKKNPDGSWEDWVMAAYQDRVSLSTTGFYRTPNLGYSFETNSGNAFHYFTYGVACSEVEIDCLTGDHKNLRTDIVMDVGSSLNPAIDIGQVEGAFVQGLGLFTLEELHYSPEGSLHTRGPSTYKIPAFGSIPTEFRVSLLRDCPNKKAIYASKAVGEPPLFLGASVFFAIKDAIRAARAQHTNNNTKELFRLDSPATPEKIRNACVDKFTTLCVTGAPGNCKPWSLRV

Compound | IC50 [µM]
COc1ccc(C2CC(c3ccccc3)=NN2C(C)=O)cc1 (stereo not drawn) | 76.2
COc1ccc(C2CC(c3ccc(Br)cc3)=NN2C(C)=O)cc1 (stereo not drawn) | 66.5
CC(=O)N1N=C(c2ccc(Br)cc2)CC1c1ccccc1 (stereo not drawn) | 71.3
CC(=O)N1N=C(c2ccco2)CC1c1ccc(Br)cc1 (stereo not drawn) | 17.6
CC(=O)N1N=C(c2ccco2)CC1c1ccc2ccccc2c1 (stereo not drawn) | 91.4
CC(=O)N1N=C(c2ccccc2)CC1c1ccc(N(C)C)cc1 (stereo not drawn) | 73.6
COc1cc(C2CC(c3ccccc3)=NN2C(C)=O)cc(OC)c1OC (stereo not drawn) | 86.4
COc1ccc(C2CC(c3ccc(Br)cc3)=NN2C(C)=O)cc1OC (stereo not drawn) | 64.1
CC(=O)N1N=C(c2ccc(Br)cc2)CC1c1cccc(Cl)c1Cl (stereo not drawn) | 51.7
CC(=O)N1N=C(c2ccc(Br)cc2)CC1c1ccc2c(c1)OCO2 (stereo not drawn) | 66.3
CC(=O)N1N=C(c2cccc([N+](=O)[O-])c2)CC1c1ccccc1 (stereo not drawn) | 79.1
COc1ccc(C2CC(c3cccc([N+](=O)[O-])c3)=NN2C(C)=O)cc1 (stereo not drawn) | 73.3
COc1ccc(C2CC(c3cccc([N+](=O)[O-])c3)=NN2C(C)=O)cc1OC (stereo not drawn) | 75.2
CC(=O)N1N=C(c2cccc([N+](=O)[O-])c2)CC1c1ccc2c(c1)OCO2 (stereo not drawn) | 76.1
CC(=O)N1N=C(c2cccc3ccccc23)CC1c1ccccc1 (stereo not drawn) | 41.3
CC(=O)N1N=C(c2cccc3ccccc23)CC1c1ccc([N+](=O)[O-])cc1 (stereo not drawn) | 32.2
COc1ccc(C2CC(c3cccc4ccccc34)=NN2C(C)=O)cc1 (stereo not drawn) | 43.5
CC(=O)N1N=C(c2cccc3ccccc23)CC1c1cccc(Br)c1 (stereo not drawn) | 38.7

Compound | IC50 [µM]
COc1ccc(OC)c(C2CC(c3cccc4ccccc34)=NN2C(C)=O)c1 (stereo not drawn) | 44.8
COc1ccc(C2CC(c3cccc4ccccc34)=NN2C(C)=O)cc1OC (stereo not drawn) | 45.6
COc1cc(C2CC(c3cccc4ccccc34)=NN2C(C)=O)cc(OC)c1OC (stereo not drawn) | 49.5
COc1cc(OC)c(C2CC(c3cccc4ccccc34)=NN2C(C)=O)cc1OC (stereo not drawn) | 46.2
CC(=O)N1N=C(c2cccc3ccccc23)CC1c1ccc2ccccc2c1 (stereo not drawn) | > 100
CC(=O)N1N=C(c2ccco2)CC1c1ccccc1 (stereo not drawn) | 26.4
CC(=O)N1N=C(c2ccco2)CC1c1ccccc1[N+](=O)[O-] (stereo not drawn) | 14.2
CC(=O)N1N=C(c2ccco2)CC1c1cccc([N+](=O)[O-])c1 (stereo not drawn) | 13.1
CC(=O)N1N=C(c2ccco2)CC1c1ccc([N+](=O)[O-])cc1 (stereo not drawn) | 12.4
COc1ccc(C2CC(c3ccco3)=NN2C(C)=O)cc1 (stereo not drawn) | 21.3
CC(=O)N1N=C(c2ccco2)CC1c1ccc(N(C)C)cc1 (stereo not drawn) | 23
COc1cc(C2CC(c3ccco3)=NN2C(C)=O)cc(OC)c1OC (stereo not drawn) | 28.7
COc1cc(OC)c(C2CC(c3ccco3)=NN2C(C)=O)cc1OC (stereo not drawn) | 30.2
COc1cc(C2CC(c3ccco3)=NN2C(C)=O)ccc1O (stereo not drawn) | 26.8
CC(=O)N1N=C(c2ccco2)CC1c1cccc(Cl)c1Cl (stereo not drawn) | 14.8
CC(=O)N1N=C(c2ccco2)CC1c1ccc2c(c1)OCO2 (stereo not drawn) | 28.1
c1ccc(C2=NNC(c3ccccc3)C2)cc1 (stereo not drawn) | > 100
CC(=O)N1N=C(c2ccccc2)CC1c1ccccc1 (stereo not drawn) | 61.4

More lines, in order of falling IC50, values ahead:

IC50 [µM] | Compound
83.7 | COc1ccc(C2CC(c3ccccc3)=NN2C(C)=O)cc1OC (stereo not drawn)
81.2 | COc1cc(C2CC(c3ccccc3)=NN2C(C)=O)ccc1O (stereo not drawn)
74.9 | COc1cc(C2CC(c3ccc(Br)cc3)=NN2C(C)=O)cc(OC)c1OC (stereo not drawn)
70.8 | CC(=O)N1N=C(c2ccccc2)CC1c1ccc2c(c1)OCO2 (stereo not drawn)
58 | CC(=O)N1N=C(c2cccc([N+](=O)[O-])c2)CC1c1cccc(Cl)c1Cl (stereo not drawn)
55.1 | CC(=O)N1N=C(c2ccccc2)CC1c1cccc(Cl)c1Cl (stereo not drawn)
47 | CC(=O)N1N=C(c2cccc3ccccc23)CC1c1ccc2c(c1)OCO2 (stereo not drawn)
45.7 | COc1cc(C2CC(c3cccc4ccccc34)=NN2C(C)=O)ccc1O (stereo not drawn)
37.2 | CC(=O)N1N=C(c2cccc3ccccc23)CC1c1ccccc1[N+](=O)[O-] (stereo not drawn)
36.4 | CC(=O)N1N=C(c2cccc3ccccc23)CC1c1cccc([N+](=O)[O-])c1 (stereo not drawn)
34.2 | CC(=O)N1N=C(c2cccc3ccccc23)CC1c1cccc(Cl)c1Cl (stereo not drawn)
29.4 | COc1ccc(C2CC(c3ccco3)=NN2C(C)=O)cc1OC (stereo not drawn)
27.3 | COc1ccc(OC)c(C2CC(c3ccco3)=NN2C(C)=O)c1 (stereo not drawn)
27.2 | CC(=O)N1N=C(c2ccco2)CC1c1cccc(O)c1 (stereo not drawn)
19.2 | CC(=O)N1N=C(c2ccco2)CC1c1ccc(C)cc1 (stereo not drawn)
15.2 | CC(=O)N1N=C(c2ccco2)CC1c1ccc(Cl)cc1 (stereo not drawn)
5.3 | CC(=O)N1N=C(c2ccco2)CC1c1ccncc1 (stereo not drawn)
